{"source": "patent US5817692A", "about": "“Endoperoxides useful as antiparasitic agents” (priority 1996, dated 1998)", "format_in_all_cases": "cell-based", "key": {"[1]": {"tested_on": "L929 cells", "test": "cytotoxicity to L929 cells, MTT assay (viability and replication)", "parameters": "Toxicity, Mean: unit not given here", "settings": "L929 cells; for Toxicity, Mean: MTT; for inhibition at 0.1 µM / inhibition at 1 µM / inhibition at 10 µM / inhibition at 50 µM: Mus musculus, read-out: Toxicity, % of control (inhibition)", "method": "Toxoplasma gondii is the causative agent of cerebral toxoplasmic encephalitis, an AIDS-related opportunistic infection. The biological activity of the endoperoxide JHU 2886 of the present invention was measured against Toxoplasma gondii cultured in L929 cells.\nMore specifically, the cytotoxicity of synthetic organic endoperoxide JHU 2886 was tested in L929 cells by measuring the viability and replication of exposed cells. The cytotoxicity of the compound to the cultured cells was measured using the MTT assay (Promega kit), according to the procedure of Carmichael et al. (18). MTT is an abbreviation for [3-(4,5-dimethylthiazol-2-yl)-2,5-dephenyltetrazolium bromide].\nThis compound is referred to as JHU 2886 in Table 1. In this experiment atovaquone and artemisinin were used as positive controls. Atovaquone is a broad-spectrum anti-infective drug having antimalarial and antitoxoplasmosis activity (19).\n^1 The cytotoxicity of each compound for the cultured cells was\nmeasured using the MTT assay (Promega kit) and inhibition of the […]"}, "[2]": {"tested_on": "P. falciparum NF54", "test": "antimalarial activity, P. falciparum NF54 parasites in vitro", "settings": "Plasmodium falciparum; P. falciparum NF54 parasites in vitro; read-out: Antimalarial Activity IC50", "method": "(§1) The protozoan Plasmodium falciparum is a causative agent of malaria, the single most critical infectious disease of mankind. The antimalarial activity of the endoperoxides was determined according to the method of Desjardins et al. (16) as modified by Milhous et al. (17). Briefly, the antimalarial activity of the endoperoxides was tested in a tritiated-hypoxanthine incorporation assay by determining the concentration of the test compound needed to inhibit 50% of the replication of Plasmodium falciparum (IC50) in human red blood cells.\nTables 4 and 5 show the structures and antimalarial activities of unsaturated and saturated bicyclic [2.2.2] endoperoxides of the invention. Compounds of this formula wherein R and R' are identical are particularly preferred. It is expected that compounds wherein R and R' are selected from the groups [drawing 33] will be especially useful. […]"}, "[3]": {"tested_on": "Plasmodium falciparum", "test": "antimalarial activity, tritiated-hypoxanthine incorporation assay in human red blood cells", "settings": "Erythrocyte, read-out: IC50 (inhibition of 50% of the replication of Plasmodium falciparum)", "method": "as §1\nIt is particularly noted that JHU 2886 has an excellent therapeutic index (ratio of activity to toxicity). At 1 μM, JHU 2886 has a therapeutic index of 70/0, whereas at the same concentration artimisinin has a therapeutic index of 76/10 (7.6), and atovaquone has a therapeutic index of only 95/17 (5.6). […] The first two compounds are known while the following five are being disclosed for the first time. […] Compounds of this formula wherein Ar is p-FCH2 Ph or p-HOCH2 Ph and X is CH2 are also expected to be particularly useful. […]"}, "[4]": {"tested_on": "Toxoplasma gondii", "test": "inhibition of intracellular replication of T. gondii in infected L929 cells, uracil incorporation assay", "parameters": "Activity, Mean: unit not given here", "settings": "for Activity, Mean: uracil incorporation; for inhibition at 0.1 µM / inhibition at 1 µM / inhibition at 10 µM / inhibition at 50 µM: Toxoplasma gondii, L929, read-out: Activity, % of control (inhibition)", "method": "Toxoplasma gondii is the causative agent of cerebral toxoplasmic encephalitis, an AIDS-related opportunistic infection. The biological activity of the endoperoxide JHU 2886 of the present invention was measured against Toxoplasma gondii cultured in L929 cells. The inhibitory activity of the synthetic organic endoperoxide was tested by measuring the intracellular replication of T. gondii in infected L929 cells. The inhibition of the intracellular replication of T. gondii was determined using the uracil incorporation assay (20). […] This compound is referred to as JHU 2886 in Table 1. In this experiment atovaquone and artemisinin were used as positive controls. Atovaquone is a broad-spectrum anti-infective drug having antimalarial and antitoxoplasmosis activity (19). | measured using the MTT assay (Promega kit) and inhibition of the | intracellular replication of T. gondii was determined using the uracil | incorporation assay."}}, "note": "Where two headings read alike, the source gives them in different places."}
{"smiles": "C[C@@H]1CC[C@H]2[C@@H](C)C(=O)O[C@@H]3O[C@@]4(C)CC[C@@H]1[C@]32OO4", "note": "[Artemisinin]", "values": [{"measurement": "Toxicity, Score", "setting": "[1]; 24 hours, dose 0.1 μM", "value": "1 (≤20%)"}, {"measurement": "Toxicity, Mean", "setting": "[1]; 24 hours, dose 0.1 μM", "value": 0.103}, {"measurement": "Toxicity, Score", "setting": "[1]; 24 hours, dose 1.0 μM", "value": "1 (≤20%)"}, {"measurement": "Toxicity, Mean", "setting": "[1]; 24 hours, dose 1.0 μM", "value": 0.101}, {"measurement": "Toxicity, Score", "setting": "[1]; 24 hours, dose 10.0 μM", "value": "1 (≤20%)"}, {"measurement": "Toxicity, Mean", "setting": "[1]; 24 hours, dose 10.0 μM", "value": 0.104}, {"measurement": "Toxicity, Score", "setting": "[1]; 24 hours, dose 50.0 μM", "value": "1 (≤20%)"}, {"measurement": "Toxicity, Mean", "setting": "[1]; 24 hours, dose 50.0 μM", "value": 0.110}, {"measurement": "Toxicity, Mean", "setting": "[1]; 48 hours, dose 0.1 μM", "value": 0.213}, {"measurement": "Toxicity, Score", "setting": "[1]; 48 hours, dose 1.0 μM", "value": "1 (≤20%)"}, {"measurement": "Toxicity, Mean", "setting": "[1]; 48 hours, dose 1.0 μM", "value": 0.205}, {"measurement": "Toxicity, Score", "setting": "[1]; 48 hours, dose 10.0 μM", "value": "1 (≤20%)"}, {"measurement": "Toxicity, Mean", "setting": "[1]; 48 hours, dose 10.0 μM", "value": 0.195}, {"measurement": "Toxicity, Score", "setting": "[1]; 48 hours, dose 50.0 μM", "value": "1 (≤20%)"}, {"measurement": "Toxicity, Mean", "setting": "[1]; 48 hours, dose 50.0 μM", "value": 0.193}, {"measurement": "Toxicity, Mean", "setting": "[1]; 72 hours, dose 0.1 μM", "value": 0.460}, {"measurement": "Toxicity, Score", "setting": "[1]; 72 hours, dose 1.0 μM", "value": "1 (≤20%)"}, {"measurement": "Toxicity, Mean", "setting": "[1]; 72 hours, dose 1.0 μM", "value": 0.394}, {"measurement": "Toxicity, Score", "setting": "[1]; 72 hours, dose 10.0 μM", "value": "1 (≤20%)"}, {"measurement": "Toxicity, Mean", "setting": "[1]; 72 hours, dose 10.0 μM", "value": 0.354}, {"measurement": "Toxicity, Score", "setting": "[1]; 72 hours, dose 50.0 μM", "value": "2 (>20%-≤40%)"}, {"measurement": "Toxicity, Mean", "setting": "[1]; 72 hours, dose 50.0 μM", "value": 0.348}, {"measurement": "inhibition at 0.1 µM", "setting": "[1]; 24 hours, dose 0.1 μM", "value": 8.56, "unit": "%"}, {"measurement": "inhibition at 1 µM", "setting": "[1]; 24 hours, dose 1.0 μM", "value": 10.3, "unit": "%"}, {"measurement": "inhibition at 10 µM", "setting": "[1]; 24 hours, dose 10.0 μM", "value": 7.67, "unit": "%"}, {"measurement": "inhibition at 50 µM", "setting": "[1]; 24 hours, dose 50.0 μM", "value": 2.36, "unit": "%"}, {"measurement": "inhibition at 0.1 µM", "setting": "[1]; 48 hours, dose 0.1 μM", "value": 0, "unit": "%"}, {"measurement": "inhibition at 1 µM", "setting": "[1]; 48 hours, dose 1.0 μM", "value": 3.75, "unit": "%"}, {"measurement": "inhibition at 10 µM", "setting": "[1]; 48 hours, dose 10.0 μM", "value": 8.44, "unit": "%"}, {"measurement": "inhibition at 50 µM", "setting": "[1]; 48 hours, dose 50.0 μM", "value": 9.53, "unit": "%"}, {"measurement": "inhibition at 0.1 µM", "setting": "[1]; 72 hours, dose 0.1 μM", "value": 0, "unit": "%"}, {"measurement": "inhibition at 1 µM", "setting": "[1]; 72 hours, dose 1.0 μM", "value": 9.97, "unit": "%"}, {"measurement": "inhibition at 10 µM", "setting": "[1]; 72 hours, dose 10.0 μM", "value": 19.2, "unit": "%"}, {"measurement": "inhibition at 50 µM", "setting": "[1]; 72 hours, dose 50.0 μM", "value": 20.6, "unit": "%"}, {"measurement": "IC50", "setting": "[2]", "value": 0.011, "unit": "µM"}, {"measurement": "IC50", "setting": "[3]", "value": 0.011, "unit": "µM"}, {"measurement": "therapeutic index (ratio of activity to toxicity), quotient", "setting": "[4]; 1 μM, T. gondii activity / L929 toxicity", "value": 7.6}, {"measurement": "Activity, Score", "setting": "[4]; 24 hours, dose 0.1 μM", "value": "2 (>20%-≤40%)"}, {"measurement": "Activity, Mean", "setting": "[4]; 24 hours, dose 0.1 μM", "value": 10106}, {"measurement": "Activity, Score", "setting": "[4]; 24 hours, dose 1.0 μM", "value": "4 (>70%-≤90%)"}, {"measurement": "Activity, Mean", "setting": "[4]; 24 hours, dose 1.0 μM", "value": 3467}, {"measurement": "Activity, Score", "setting": "[4]; 24 hours, dose 10.0 μM", "value": "4 (>70%-≤90%)"}, {"measurement": "Activity, Mean", "setting": "[4]; 24 hours, dose 10.0 μM", "value": 3470}, {"measurement": "Activity, Score", "setting": "[4]; 24 hours, dose 50.0 μM", "value": "4 (>70%-≤90%)"}, {"measurement": "Activity, Mean", "setting": "[4]; 24 hours, dose 50.0 μM", "value": 33322}, {"measurement": "Activity, Score", "setting": "[4]; 48 hours, dose 0.1 μM", "value": "1 (≤20%)"}, {"measurement": "Activity, Mean", "setting": "[4]; 48 hours, dose 0.1 μM", "value": 15440}, {"measurement": "Activity, Score", "setting": "[4]; 48 hours, dose 1.0 μM", "value": "3 (>40%-≤70%)"}, {"measurement": "Activity, Mean", "setting": "[4]; 48 hours, dose 1.0 μM", "value": 6101}, {"measurement": "Activity, Score", "setting": "[4]; 48 hours, dose 10.0 μM", "value": "4 (>70%-≤90%)"}, {"measurement": "Activity, Mean", "setting": "[4]; 48 hours, dose 10.0 μM", "value": 4225}, {"measurement": "Activity, Score", "setting": "[4]; 48 hours, dose 50.0 μM", "value": "4 (>70%-≤90%)"}, {"measurement": "Activity, Mean", "setting": "[4]; 48 hours, dose 50.0 μM", "value": 4167}, {"measurement": "Activity, Score", "setting": "[4]; 72 hours, dose 0.1 μM", "value": 0}, {"measurement": "Activity, Mean", "setting": "[4]; 72 hours, dose 0.1 μM", "value": 8253}, {"measurement": "Activity, Score", "setting": "[4]; 72 hours, dose 1.0 μM", "value": "4 (>70%-≤90%)"}, {"measurement": "Activity, Mean", "setting": "[4]; 72 hours, dose 1.0 μM", "value": 1976}, {"measurement": "Activity, Score", "setting": "[4]; 72 hours, dose 10.0 μM", "value": "4 (>70%-≤90%)"}, {"measurement": "Activity, Mean", "setting": "[4]; 72 hours, dose 10.0 μM", "value": 783}, {"measurement": "Activity, Score", "setting": "[4]; 72 hours, dose 50.0 μM", "value": "4 (>70%-≤90%)"}, {"measurement": "Activity, Mean", "setting": "[4]; 72 hours, dose 50.0 μM", "value": 813}, {"measurement": "inhibition at 0.1 µM", "setting": "[4]; 24 hours, dose 0.1 μM", "value": 29.6, "unit": "%"}, {"measurement": "inhibition at 1 µM", "setting": "[4]; 24 hours, dose 1.0 μM", "value": 75.8, "unit": "%"}, {"measurement": "inhibition at 10 µM", "setting": "[4]; 24 hours, dose 10.0 μM", "value": 75.8, "unit": "%"}, {"measurement": "inhibition at 50 µM", "setting": "[4]; 24 hours, dose 50.0 μM", "value": 76.8, "unit": "%"}, {"measurement": "inhibition at 0.1 µM", "setting": "[4]; 48 hours, dose 0.1 μM", "value": 10.4, "unit": "%"}, {"measurement": "inhibition at 1 µM", "setting": "[4]; 48 hours, dose 1.0 μM", "value": 64.6, "unit": "%"}, {"measurement": "inhibition at 10 µM", "setting": "[4]; 48 hours, dose 10.0 μM", "value": 75.5, "unit": "%"}, {"measurement": "inhibition at 50 µM", "setting": "[4]; 48 hours, dose 50.0 μM", "value": 75.8, "unit": "%"}, {"measurement": "inhibition at 0.1 µM", "setting": "[4]; 72 hours, dose 0.1 μM", "value": -14.1, "unit": "%"}, {"measurement": "inhibition at 1 µM", "setting": "[4]; 72 hours, dose 1.0 μM", "value": 72.7, "unit": "%"}, {"measurement": "inhibition at 10 µM", "setting": "[4]; 72 hours, dose 10.0 μM", "value": 89.2, "unit": "%"}, {"measurement": "inhibition at 50 µM", "setting": "[4]; 72 hours, dose 50.0 μM", "value": 88.8, "unit": "%"}]}
